The values that follow are results of earlier work, collected in publication PMC6095608 (PLoS ONE, 2018).

The structures appear in SMILES notation.

This data set relates to rats. Conditions: co-administered trimethoprim; cited from earlier work.

With `COc1cc(Cc2cnc(N)nc2N)cc(OC)c1OC` [trimethoprim], the “Effect on lamivudine accumulation in the renal cortex” value is reported as “did not impair”.
